# Results published in US20230303549A1, “SUBSTITUTED HETEROARYLOXYPYRIDINES, THE SALTS THEREOF AND THEIR USE AS HERBICIDAL AGENTS” (Bayer Aktiengesellschaft, priority 2020, published 2023).
# Assays:
# Type in all cases: in vivo
# [1] = tested on: Abutilon theophrasti (ABUTH); test: Pre-emergence herbicide efficacy at 320 g/ha, greenhouse pot test; settings: visual scoring vs untreated control after about 3 weeks
# Source text: (§1) Seeds of mono- and dicotyledonous weed plants were placed in plastic pots in sandy loam soil (doubly sown with in each case one species of mono- or dicotyledonous weed plants per pot) and covered with soil. The compounds of the invention, formulated in the form of wettable powders (WP) or as emulsion concentrates (EC), were then applied onto the surface of the covering soil as aqueous suspension or emulsion with addition of 0.5% additive at a water application rate of 600 liters per hectare (converted). After the treatment, the pots were placed in a greenhouse and kept under good growth conditions for the test plants. After about 3 weeks, the effect of the preparations was scored visually in comparison with untreated controls as percentages. For example, 100% activity=the plants have died, 0% activity=like control plants. Tables C1 to C12 below show the effects of selected compounds of the general formula (I) according to Table 1 on various harmful plants and an application rate corresponding to 320 g/ha, which were obtained by the experimental procedure mentioned above.
# [2] = tested on: Stellaria media (STEME); test: as above; settings: visual scoring vs untreated control after about 3 weeks
# Source text: as §1
# [3] = tested on: Bassia scoparia (KCHSC); test: as above
# Source text: as §1
# [4] = tested on: Veronica persica (VERPE); test: as above; settings: visual scoring vs untreated control after about 3 weeks
# Source text: as §1
# [5] = tested on: Amaranthus retroflexus (AMARE); test: as above; settings: visual scoring vs untreated control after about 3 weeks
# Source text: as §1
# [6] = tested on: Setaria viridis (SETVI); test: as above; settings: visual scoring vs untreated control after about 3 weeks
# Source text: as §1
# [7] = tested on: Matricaria inodora (MATIN); test: as above; settings: visual scoring vs untreated control after about 3 weeks
# Source text: as §1
# [8] = tested on: Abutilon theophrasti (ABUTH); test: Post-emergence herbicidal efficacy at 320 g/ha, greenhouse pot test; settings: visual rating vs untreated control after about 3 weeks
# Protocol: (§2) Seeds of mono- and dicotyledonous weed plants were placed in plastic pots in sandy loam soil (doubly sown with in each case one species of mono- or dicotyledonous weed plants per pot), covered with soil and cultivated in a greenhouse under controlled growth conditions. 2 to 3 weeks after sowing, the test plants were treated at the one-leaf stage. The compounds of the invention, formulated in the form of wettable powders (WP) or as emulsion concentrates (EC), were applied onto the green parts of the plants as aqueous suspension or emulsion with addition of 0.5% additive at a water application rate of 600 liters per hectare (converted). After the test plants had been kept in the greenhouse under optimum growth conditions for about 3 weeks, the activity of the preparations was rated visually in comparison to untreated controls. For example, 100% activity=the plants have died, 0% activity=like control plants. Tables […] 11 below show the effects of selected compounds of the general formula (I) according to Table 1 on various harmful plants and an application rate corresponding to 320 g/ha, which were obtained by the experimental procedure mentioned above.
# [9] = tested on: Stellaria media (STEME); test: as above; settings: visual rating vs untreated control after about 3 weeks
# Protocol: as §2
# [10] = tested on: Bassia scoparia (KCHSC); test: as above; settings: visual rating vs untreated control after about 3 weeks
# Protocol: as §2
# [11] = tested on: Veronica persica (VERPE); test: as above; settings: 320 g/ha, visual rating vs untreated control after about 3 weeks
# Protocol: as §2
# [12] = tested on: Amaranthus retroflexus (AMARE); test: as above; settings: visual rating vs untreated control after about 3 weeks
# Protocol: as §2
# [13] = tested on: Poa annua (POAAN); test: as above; settings: visual rating vs untreated control after about 3 weeks
# Protocol: as §2
# [14] = tested on: Veronica persica (VERPE); test: Pre-emergence herbicide efficacy at 80 g/ha, greenhouse pot test; settings: visual scoring vs untreated control after about 3 weeks
# Source text: (§3) Seeds of monocotyledonous and dicotyledonous weed plants and crop plants were placed in plastic or organic planting pots and covered with soil. The compounds of the invention, formulated in the form of wettable powders (WP) or as emulsion concentrates (EC), were then applied to the surface of the covering soil as aqueous suspension or emulsion with addition of 0.5% additive at a water application rate of […] (converted). After the treatment, the pots were placed in a greenhouse and kept under good growth conditions for the test plants. After about 3 weeks, the effect of the preparations was scored visually in comparison with untreated controls as percentages. For example, 100% activity=the plants have died, 0% activity=like control plants. Tables D1 to D12 below show the effects of selected compounds of the general formula (I) according to Table 1 on various harmful plants and an application rate corresponding to 80 g/ha, which were obtained by the experimental procedure mentioned above.
# [15] = tested on: Amaranthus retroflexus (AMARE); test: as above; settings: visual scoring vs untreated control after about 3 weeks
# Source text: as §3
# [16] = tested on: Viola tricolor (VIOTR); test: as above; settings: visual scoring vs untreated control after about 3 weeks
# Source text: as §3
# [17] = tested on: Alopecurus myosuroides (ALOMY); test: as above; settings: visual scoring vs untreated control after about 3 weeks
# Source text: as §3
# [18] = tested on: Veronica persica (VERPE); test: Post-emergence herbicidal efficacy at 80 g/ha, greenhouse pot test; settings: visual rating vs untreated control after about 3 weeks
# Protocol: (§4) Seeds of monocotyledonous and dicotyledonous weeds and crop plants were placed in sandy loam in plastic or organic planting pots, covered with soil and cultivated in a greenhouse under controlled growth conditions. 2 to 3 weeks after sowing, the test plants were treated at the one-leaf stage. The compounds of the invention, formulated in the form of wettable powders (WP) or as emulsion concentrates (EC), were then sprayed onto the green parts of the plants as aqueous suspension or emulsion with addition of 0.5% additive at a water application rate of 600 l/ha (converted). After the test plants had been kept in the greenhouse under optimum growth conditions for about 3 weeks, the activity of the preparations was rated visually in comparison to untreated controls. For example, 100% activity=the plants have died, 0% activity=like control plants. Tables B1 to B6 below show the effects of selected compounds of the general formula (I) according to Table 1 on various harmful plants and an application rate corresponding to 80 g/ha, which were obtained by the experimental procedure mentioned above.
# [19] = tested on: Amaranthus retroflexus (AMARE); test: as above; settings: visual rating vs untreated control after about 3 weeks
# Protocol: as §4
# [20] = tested on: Viola tricolor (VIOTR); test: as above; settings: visual rating vs untreated control after about 3 weeks
# Protocol: as §4
# [21] = tested on: Digitaria sanguinalis (DIGSA); test: Pre-emergence herbicide efficacy at 320 g/ha, greenhouse pot test; settings: visual scoring vs untreated control after about 3 weeks
# Source text: as §1
# [22] = tested on: Poa annua (POAAN); test: as above; settings: visual scoring vs untreated control after about 3 weeks
# Source text: as §1
# [23] = tested on: Alopecurus myosuroides (ALOMY); test: as above; settings: visual scoring vs untreated control after about 3 weeks
# Source text: as §1
# [24] = tested on: Alopecurus myosuroides (ALOMY); test: Post-emergence herbicidal efficacy at 320 g/ha, greenhouse pot test; settings: visual rating vs untreated control after about 3 weeks
# Protocol: as §2
# [25] = tested on: Abutilon theophrasti (ABUTH); test: Pre-emergence herbicide efficacy at 80 g/ha, greenhouse pot test; settings: visual scoring vs untreated control after about 3 weeks
# Source text: as §3
# [26] = tested on: Polygonum convolvulus (POLCO); test: as above; settings: visual scoring vs untreated control after about 3 weeks
# Source text: as §3
# [27] = tested on: Setaria viridis (SETVI); test: as above; settings: visual scoring vs untreated control after about 3 weeks
# Source text: as §3
# [28] = tested on: Lolium rigidum (LOLRI); test: Pre-emergence herbicide efficacy at 320 g/ha, greenhouse pot test; settings: visual scoring vs untreated control after about 3 weeks
# Source text: as §1
# [29] = tested on: Echinochloa crus-galli (ECHCG); test: as above; settings: visual scoring vs untreated control after about 3 weeks
# Source text: as §1
# [30] = tested on: Matricaria inodora (MATIN); test: Pre-emergence herbicide efficacy at 80 g/ha, greenhouse pot test; settings: visual scoring vs untreated control after about 3 weeks
# Source text: as §3
# [31] = tested on: Polygonum convolvulus (POLCO); test: Post-emergence herbicidal efficacy at 80 g/ha, greenhouse pot test; settings: visual rating vs untreated control after about 3 weeks
# Protocol: as §4
# [32] = 320 g/ha, visual scoring vs untreated control after about 3 weeks
Structure (SMILES),Pre-emergence efficacy against Abutilon theophrasti (ABUTH) [1] [%],Pre-emergence efficacy against Stellaria media (STEME) [2] [%],Pre-emergence efficacy against Veronica persica (VERPE) [4] [%],Pre-emergence efficacy against Amaranthus retroflexus (AMARE) [5] [%],Pre-emergence efficacy against Setaria viridis (SETVI) [6] [%],Pre-emergence efficacy against Matricaria inodora (MATIN) [7] [%],Post-emergence efficacy against Abutilon theophrasti (ABUTH) [8] [%],Post-emergence action against Stellaria media (STEME) [9] [%],Post-emergence efficacy against Bassia scoparia (KCHSC) [10] [%],Post-emergence efficacy against Veronica persica (VERPE) [11] [%],Post-emergence efficacy against Amaranthus retroflexus (AMARE) [12] [%],Pre-emergence efficacy against Veronica persica (VERPE) [14] [%],Pre-emergence efficacy against Amaranthus retroflexus (AMARE) [15] [%],Pre-emergence efficacy against Viola tricolor (VIOTR) [16] [%],Pre-emergence efficacy against Alopecurus myosuroides (ALOMY) [17] [%],Post-emergence efficacy against Amaranthus retroflexus (AMARE) [19] [%],Post-emergence efficacy against Viola tricolor (VIOTR) [20] [%],Pre-emergence efficacy against Abutilon theophrasti (ABUTH) [25] [%],Pre-emergence efficacy against Polygonum convolvulus (POLCO) [26] [%],Pre-emergence efficacy against Setaria viridis (SETVI) [27] [%],also measured
Cc1cc(C)c(-c2cc(C(F)F)no2)c(Oc2ccc(C#N)cn2)n1 [Example I-292],90,100,90,100,90,100,90,100,90,100,100,90,100,90,80,90,90,,,,"Pre-emergence efficacy against Bassia scoparia (KCHSC) ([3]; dosage 1280 g/ha in Table C6, visual scoring after about 3 weeks): 100%; Post-emergence efficacy against Poa annua (POAAN) [13]: 100%; Post-emergence efficacy against Veronica persica (VERPE) [18]: 90%"
Cc1cc(C)c(-c2cc(C(F)(F)Cl)no2)c(Oc2ncc(Cl)cn2)n1 [Example I-8],100,100,100,100,90,100,90,90,90,100,100,80,100,90,90,100,90,100,90,100,"Pre-emergence efficacy against Digitaria sanguinalis (DIGSA) [21]: 100%; Pre-emergence efficacy against Bassia scoparia (KCHSC) [3, 32]: 100%; Pre-emergence efficacy against Poa annua (POAAN) [22]: 100%; Pre-emergence efficacy against Alopecurus myosuroides (ALOMY) [23]: 100%; Post-emergence efficacy against Alopecurus myosuroides (ALOMY) [24]: 100%"
Cc1cc(C)c(-c2cc(C(F)F)no2)c(Oc2ncc(Cl)cn2)n1 [Example I-1],100,100,100,100,100,100,90,100,90,100,100,90,100,90,90,100,90,80,90,80,"Pre-emergence efficacy against Bassia scoparia (KCHSC) [3, 32]: 90%; Pre-emergence efficacy against Lolium rigidum (LOLRI) [28]: 90%; Pre-emergence efficacy against Poa annua (POAAN) [22]: 100%; Pre-emergence efficacy against Echinochloa crus-galli (ECHCG) [29]: 100%; Pre-emergence efficacy against Alopecurus myosuroides (ALOMY) [23]: 100%; Post-emergence efficacy against Poa annua (POAAN) [13]: 90%; Post-emergence efficacy against Alopecurus myosuroides (ALOMY) [24]: 90%; Pre-emergence efficacy against Matricaria inodora (MATIN) [30]: 100%"
Cc1cc(C)c(-c2cc(C(F)F)no2)c(Oc2ccc(F)cn2)n1 [Example I-293],,,,,,,,,,,,80,100,90,90,100,,90,80,100,Pre-emergence efficacy against Matricaria inodora (MATIN) [30]: 100%; Post-emergence efficacy against Polygonum convolvulus (POLCO) [31]: 100%
